Test results taken from ChEMBL document CHEMBL4270590, “Azulene-based compounds for targeting orexin receptors” (Eur J Med Chem, 2018).
Active and inactive are the calls of the source. The rule behind the calls is not given here.

Tests used:
[1] = biological target: T1, Orexin/Hypocretin receptor type 1 (Homo sapiens) (UniProt O43613); assay: Displacement of [125I]-orexin-A from human OX1 receptor expressed in CHOK1 cells at 10 uM incubated for 10 mins and measured after 90 mins by liquid scintillation counting method relative to control; format: cell-based
T1 sequence (whole entry): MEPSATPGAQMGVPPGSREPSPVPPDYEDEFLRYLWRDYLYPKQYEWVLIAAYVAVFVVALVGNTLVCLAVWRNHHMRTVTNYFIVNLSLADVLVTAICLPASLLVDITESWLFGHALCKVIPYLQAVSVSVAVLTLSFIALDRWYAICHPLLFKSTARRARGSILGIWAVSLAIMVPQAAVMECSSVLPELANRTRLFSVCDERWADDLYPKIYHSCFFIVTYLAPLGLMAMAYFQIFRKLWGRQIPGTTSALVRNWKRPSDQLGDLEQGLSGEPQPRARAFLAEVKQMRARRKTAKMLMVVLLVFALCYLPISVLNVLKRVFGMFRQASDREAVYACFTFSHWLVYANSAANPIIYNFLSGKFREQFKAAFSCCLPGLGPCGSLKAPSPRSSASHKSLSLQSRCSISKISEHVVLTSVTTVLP

[2] = biological target: T2, Orexin/Hypocretin receptor type 1 (Homo sapiens, UniProt O43613); assay: Antagonist activity at human OX1 receptor expressed in CHOK1 cells assessed as inhibition of orexin-A-induced calcium accumulation preincubated for 30 mins followed by orexin-A addition measured for 150 secs by calcium-4 dye based FLIPR assay; format: functional, cell-based; conditions: read-out: Ki(app)
T2 sequence (O43613 whole entry): T1 sequence (whole entry)

[3] = biological target: T3, Orexin receptor type 2 (Homo sapiens) (UniProt O43614); assay: Displacement of [125I]-orexin-A from human OX2 receptor expressed in CHOK1 cells at 10 uM incubated for 10 mins and measured after 90 mins by liquid scintillation counting method relative to control; format: cell-based
T3 sequence (whole entry): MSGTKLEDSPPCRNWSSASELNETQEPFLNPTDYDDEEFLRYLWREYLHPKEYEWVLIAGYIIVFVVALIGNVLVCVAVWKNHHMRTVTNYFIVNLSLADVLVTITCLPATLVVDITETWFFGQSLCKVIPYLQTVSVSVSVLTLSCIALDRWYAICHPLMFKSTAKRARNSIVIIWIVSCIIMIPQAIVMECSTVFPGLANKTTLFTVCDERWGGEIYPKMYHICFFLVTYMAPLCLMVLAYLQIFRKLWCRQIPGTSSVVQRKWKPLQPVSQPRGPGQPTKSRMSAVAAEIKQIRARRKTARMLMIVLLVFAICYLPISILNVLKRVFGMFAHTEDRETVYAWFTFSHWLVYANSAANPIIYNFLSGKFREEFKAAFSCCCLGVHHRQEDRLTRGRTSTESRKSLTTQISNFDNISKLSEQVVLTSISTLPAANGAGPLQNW

[4] = biological target: T4, Orexin receptor type 2 (Homo sapiens, UniProt O43614); assay: Antagonist activity at human OX2 receptor expressed in CHOK1 cells assessed as inhibition of orexin-A-induced calcium accumulation preincubated for 30 mins followed by orexin-A addition measured for 150 secs by calcium-4 dye based FLIPR assay; format: functional, cell-based; conditions: read-out: Ki(app)
T4 sequence (O43614 whole entry): T3 sequence (whole entry)

[5] = biological target: T1, Orexin/Hypocretin receptor type 1 (Homo sapiens); assay: Agonist activity at human OX1 receptor expressed in CHOK1 cells assessed as increase in calcium accumulation at 10 uM incubated for 30 mins measured for 150 secs by calcium-4 dye based FLIPR assay relative to orexin-A; format: functional, cell-based
[6] = biological target: T3, Orexin receptor type 2 (Homo sapiens); assay: Agonist activity at human OX2 receptor expressed in CHOK1 cells assessed as increase in calcium accumulation at 10 uM incubated for 30 mins measured for 150 secs by calcium-4 dye based FLIPR assay relative to orexin-A; format: functional, cell-based
[7] = Colloidal aggregating behavior of the compound at 18 to 30 uM by nephelometric method; format: physicochemical
[8] = biological target: T1, Orexin/Hypocretin receptor type 1 (Homo sapiens); assay: Allosteric agonist activity at human OX1 receptor expressed in CHOK1 cells assessed as potentiation of orexin-A induced calcium accumulation at 5 uM preincubated for 30 mins followed by orexin-A addition and measured for 150 secs by calcium-4 dye based FLIPR assay relative to control; format: functional, cell-based
[9] = biological target: T1, Orexin/Hypocretin receptor type 1 (Homo sapiens); assay: Allosteric agonist activity at human OX1 receptor expressed in CHOK1 cells assessed as potentiation of orexin-A induced calcium accumulation at 10 uM preincubated for 30 mins followed by orexin-A addition and measured for 150 secs by calcium-4 dye based FLIPR assay relative to control; format: functional, cell-based
[10] = biological target: T3, Orexin receptor type 2 (Homo sapiens); assay: Allosteric agonist activity at human OX2 receptor expressed in CHOK1 cells assessed as potentiation of orexin-A induced calcium accumulation at 10 uM preincubated for 30 mins followed by orexin-A addition and measured for 150 secs by calcium-4 dye based FLIPR assay relative to control; format: functional, cell-based
[11] = biological target: T1, Orexin/Hypocretin receptor type 1 (Homo sapiens); assay: Allosteric agonist activity at human OX1 receptor expressed in CHOK1 cells assessed as potentiation of orexin-A induced calcium accumulation preincubated for 30 mins followed by orexin-A addition and measured for 150 secs by calcium-4 dye based FLIPR assay; format: functional, cell-based
[12] = biological target: T3, Orexin receptor type 2 (Homo sapiens); assay: Allosteric agonist activity at human OX2 receptor expressed in CHOK1 cells assessed as potentiation of orexin-A induced calcium accumulation preincubated for 30 mins followed by orexin-A addition and measured for 150 secs by calcium-4 dye based FLIPR assay; format: functional, cell-based
[13] = Solubility of the compound in water; format: physicochemical; conditions: buffer
[14] = tested on: CHO-K1; assay: Effect on ATP-induced intracellular calcium accumulation in CHOK1 cells expressing human OXR at 10 uM incubated for 30 mins and measured for 150 secs by calcium-4 dye based FLIPR assay; format: functional, cell-based; conditions: Cricetulus griseus

Which inhibition [1] does the source give for COC(=O)c1cccc2c(C=O)cc(I)c-2c1 here?
Its inhibition is 40.7%.

And the Ki [2]?
The Ki was 4.8 µM.

What about the inhibition [3] of the same molecule?
Its inhibition is 47.2%.

And the Ki [4]?
The Ki was 3.6 µM.

And the Emax [5]?
Its Emax is 1.59%.

What about the Emax [6] of the same molecule?
Its Emax is 0.68%.

And the Activity [7]?
Its Activity is “Active”.

For COC(=O)Cc1ccc2ccc(C(=O)c3ccc(C(F)(F)F)cc3)c-2cc1, which fold change (FC) [8] is on record?
Its fold change (FC) is 1.4.

And the inhibition [3]?
The inhibition was 1%.

What about the Emax [5] of the same molecule?
The Emax was 1.28%.

What about the Emax [6] of the same molecule?
Its Emax is 0.37%.

What about the fold change (FC) [9] of the same molecule?
The fold change (FC) was 2.03.

And the fold change (FC) [10]?
The fold change (FC) was 1.34.

And the Activity [11]?
The Activity was “Dose-dependent effect”.

What about the Activity [12] of the same molecule?
The Activity was “Dose-dependent effect”.

And the solubility [13]?
The solubility was “Insoluble”.

And the Activity [14]?
The Activity was “inactive”.
